The record followed here is PubChem BioAssay (NCI).

Among the test systems are MDA-MB-231 breast; MALME-3M melanoma; LOX IMVI melanoma; HT29 colon; SF-295 CNS; SK-OV-3 ovarian; A549 NSCLC; SNB-19 CNS; IGROV1 ovarian; CCRF-CEM leukemia.
Assay in all cases: DTP human tumour cell line panel, 48 h

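All cell lines were grown in 96-well plates and treated with compound for 48 hours. At the GI50, growth is halved. Definition used: TGI = concentration required for complete inhibition of growth.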

Turning to `COc1ccc(C(O)c2ccccn2)cc1` (configuration not stated), the TGI in the test on MDA-MB-231 breast, with MALME-3M melanoma, in the test on LOX IMVI melanoma, with HT29 colon, with SF-295 CNS and in the test on SK-OV-3 ovarian was above 100 µM in each case. In addition, the TGI in the test with A549 NSCLC, with SNB-19 CNS and with IGROV1 ovarian was above 100 µM throughout.
On to `O=C1C(Cl)=C(NCCCN(CCCNC2=C(Cl)C(=O)c3ccccc3C2=O)C2=C(Cl)C(=O)c3ccccc3C2=O)C(=O)c2ccccc21`, for which the GI50 (usually the concentration that inhibits growth by half) in the test with MDA-MB-231 breast is 1.93 µM; in the test on CCRF-CEM leukemia it was 3.34 µM; with MALME-3M melanoma, 1.62 µM; in the test on SF-295 CNS, 3.07 µM; in the test with SK-OV-3 ovarian, 18.4 µM; in the test on A549 NSCLC it was 3.43 µM. Besides, the GI50 in the test with SNB-19 CNS was 3.79 µM; with IGROV1 ovarian, 1.76 µM. The TGI (commonly the concentration giving total growth inhibition) was above 100 µM in the test with CCRF-CEM leukemia; 3.29 µM with MALME-3M melanoma; 14.7 µM in the test with SF-295 CNS; 37.9 µM in the test with SK-OV-3 ovarian; above 100 µM in the test with A549 NSCLC; 18.9 µM with SNB-19 CNS. In the test with IGROV1 ovarian, this compound had a TGI of 6.13 µM.
As to `CCC(c1ccccc1)c1cc(C(C)(C)C)cc(C(C)(C)C)c1O` (configuration not stated), the TGI in the test on MDA-MB-231 breast came to 31.9 µM; in the test with MALME-3M melanoma, 26.8 µM; with LOX IMVI melanoma it was 31.9 µM; in the test on HT29 colon, 28 µM; in the test with SF-295 CNS, 26.9 µM; with SK-OV-3 ovarian, 28.1 µM. The TGI in the test with A549 NSCLC came out at 29.8 µM; in the test on SNB-19 CNS, 32.7 µM; with IGROV1 ovarian it was 30.7 µM.
In the case of `COc1ccc2nc3ccccc3c(NCCCCN(CCCl)CCCl)c2c1`, the TGI is 16.7 µM in the test on MDA-MB-231 breast; 0.725 µM in the test on MALME-3M melanoma; above 100 µM with HT29 colon; 18.6 µM with SF-295 CNS; 6.25 µM in the test with A549 NSCLC; 7.9 µM in the test on SNB-19 CNS. In the test with IGROV1 ovarian, this compound came in with a TGI of 17.7 µM.
`O=C1C=CC(=O)c2c1nc(CBr)[nH]c2=O`: the TGI in the test with MDA-MB-231 breast, in the test with MALME-3M melanoma, in the test with LOX IMVI melanoma, in the test on HT29 colon, in the test on SF-295 CNS and in the test on SK-OV-3 ovarian was above 100 µM each time. For the same compound, the TGI in the test with A549 NSCLC and in the test with IGROV1 ovarian was above 100 µM each time.
In the case of `O=C(C(=CN1CCN(C(=O)c2ccco2)C1=S)C(=O)c1ccccc1)c1ccccc1`, the GI50 was 7.41 µM in the test with MDA-MB-231 breast; 3.05 µM with MALME-3M melanoma; 1.22 µM in the test on LOX IMVI melanoma; 16.9 µM in the test with HT29 colon; 11.1 µM in the test on SF-295 CNS; 41.8 µM in the test with SK-OV-3 ovarian. Further, the figures for the GI50 with A549 NSCLC, in the test on SNB-19 CNS and with IGROV1 ovarian were 11.3 µM, 29.2 µM and 5.58 µM, respectively. The TGI in the test with MDA-MB-231 breast was 20.1 µM; with MALME-3M melanoma it was 43.3 µM; in the test on LOX IMVI melanoma it was 4.1 µM; with HT29 colon, above 50 µM; in the test on SF-295 CNS, 33 µM; in the test on SK-OV-3 ovarian, above 50 µM. For the same compound, the TGI was 29.1 µM in the test with A549 NSCLC, above 50 µM in the test on SNB-19 CNS and 40.9 µM in the test with IGROV1 ovarian.
Take `O=C1Cc2cc(CCN3CCNCC3)c(Cl)cc2N1`: the GI50 in the test on MDA-MB-231 breast is 3.9 µM; with CCRF-CEM leukemia, 2.98 µM; in the test with LOX IMVI melanoma, above 100 µM; with HT29 colon it was above 100 µM; in the test on SF-295 CNS, 4.2 µM; in the test with SK-OV-3 ovarian, above 100 µM. In addition, the GI50 was 6.85 µM with A549 NSCLC and 23.7 µM in the test with SNB-19 CNS. The TGI in the test on MDA-MB-231 breast, in the test on CCRF-CEM leukemia, in the test on LOX IMVI melanoma, in the test on HT29 colon, in the test on SF-295 CNS and in the test on SK-OV-3 ovarian was above 100 µM in each case. Also, the TGI with A549 NSCLC and in the test with SNB-19 CNS was above 100 µM in each case.
As for `COC(=O)c1cc2cc(/C=C3/SC(=S)N(N(C(C)=O)C(C)=O)C3=O)oc2n1Cc1ccccc1`, the GI50 with MDA-MB-231 breast was 20.6 µM; in the test with CCRF-CEM leukemia, 32.3 µM; in the test on LOX IMVI melanoma it was 13.9 µM; in the test on HT29 colon, 37.4 µM; with SF-295 CNS, 13.2 µM; in the test with SK-OV-3 ovarian, 37.4 µM. Further, the GI50 is 18.1 µM in the test on A549 NSCLC, 27.3 µM with SNB-19 CNS and 22.4 µM in the test on IGROV1 ovarian. The TGI in the test on MDA-MB-231 breast was 50.4 µM; in the test on CCRF-CEM leukemia, above 100 µM; in the test on LOX IMVI melanoma it was 31.4 µM; in the test on HT29 colon, above 100 µM; in the test on SF-295 CNS, 52.4 µM; with SK-OV-3 ovarian it was 89.9 µM. The TGI in the test on A549 NSCLC is 45.9 µM; in the test on SNB-19 CNS, above 100 µM; in the test with IGROV1 ovarian it was 57.3 µM.
Consider `CC1=C[C@@H]2c3c(c(O)c(O)c4oc5cc(O)cc(O)c5c(=O)c34)[C@@H](c3cc(O)c(O)c4oc5cc(O)cc(O)c5c(=O)c34)[C@@H]2C(C)(C)C1`, for which the GI50 in the test with MDA-MB-231 breast is 4.19 µM; in the test on MALME-3M melanoma, 8.53 µM; in the test with LOX IMVI melanoma, 1.53 µM; in the test on HT29 colon it was 3.86 µM; in the test on SF-295 CNS, 2.87 µM; with SK-OV-3 ovarian it was 3.77 µM. The GI50 in the test with A549 NSCLC was 4.12 µM; in the test with SNB-19 CNS it was 2.76 µM; in the test on IGROV1 ovarian, 4.01 µM. Moreover, the TGI was determined as 20.5 µM in the test with MDA-MB-231 breast; 25.2 µM in the test on MALME-3M melanoma; 4.26 µM in the test on LOX IMVI melanoma; 14.8 µM in the test on HT29 colon; 11.3 µM in the test with SF-295 CNS; 14.6 µM in the test on SK-OV-3 ovarian. In addition, the TGI with A549 NSCLC is 17.6 µM; with SNB-19 CNS, 13 µM; in the test with IGROV1 ovarian it was 22.2 µM.
For `CSc1ccc(C(=O)/C=C/c2ccc(Cl)cc2Cl)cc1`, the GI50 with MDA-MB-231 breast is 27.7 µM; with MALME-3M melanoma it was 29.1 µM; in the test with LOX IMVI melanoma, 20 µM; in the test with SF-295 CNS it was 29.5 µM; in the test with A549 NSCLC, 17.7 µM; in the test on IGROV1 ovarian, 15.6 µM. The TGI was 86.9 µM in the test with MDA-MB-231 breast; above 100 µM in the test on MALME-3M melanoma; 37 µM with LOX IMVI melanoma; above 100 µM in the test with SF-295 CNS; 40.5 µM with A549 NSCLC; 31.9 µM in the test with IGROV1 ovarian.
Turning to `COc1cc(C(=O)O[C@H](C(=O)NCCCCNC(=O)[C@@H](OC(=O)c2cc(OC)cc3c(C)cccc23)[C@]2(C)CO2)[C@]2(C)CO2)c2cccc(C)c2c1`, the GI50 in the test with MDA-MB-231 breast was 1.85 µM; in the test on CCRF-CEM leukemia it was below 0.01 µM; with LOX IMVI melanoma, below 0.01 µM; in the test on HT29 colon, 0.104 µM; in the test on SF-295 CNS, 0.122 µM; with SK-OV-3 ovarian, 0.703 µM. In addition, the values for the GI50 in the test with A549 NSCLC and in the test with SNB-19 CNS were 0.26 µM and 0.201 µM, respectively. Moreover, the TGI in the test on MDA-MB-231 breast was 5.48 µM; with CCRF-CEM leukemia it was above 100 µM; in the test with LOX IMVI melanoma, below 0.01 µM; in the test with HT29 colon, above 100 µM; in the test on SF-295 CNS, 0.672 µM; with SK-OV-3 ovarian, 6.19 µM. Also, the TGI with A549 NSCLC is 0.699 µM; with SNB-19 CNS, 2.31 µM; in the test on IGROV1 ovarian, 0.944 µM.
For the compound `CC(=O)[CH-]C(=O)c1ccccc1.CC(=O)[CH-]C(=O)c1ccccc1.CC(=O)[CH-]C(=O)c1ccccc1.[Ga+3]`, the GI50 is 4.39 µM in the test on CCRF-CEM leukemia; 2.61 µM in the test on MALME-3M melanoma; 16.3 µM with LOX IMVI melanoma; 20.7 µM in the test with HT29 colon; 23.3 µM in the test on SF-295 CNS; 20.1 µM in the test with SK-OV-3 ovarian. The figures for the GI50 with A549 NSCLC, in the test on SNB-19 CNS and in the test with IGROV1 ovarian were 34.4 µM, 39.1 µM and 18.6 µM, respectively. Also, the TGI came to 35.7 µM in the test with CCRF-CEM leukemia; 19.5 µM in the test on MALME-3M melanoma; 31.7 µM in the test with LOX IMVI melanoma; 39.1 µM in the test with HT29 colon; 47.5 µM in the test with SF-295 CNS; 38.2 µM in the test with SK-OV-3 ovarian. Further, the results for the TGI with A549 NSCLC, in the test on SNB-19 CNS and in the test on IGROV1 ovarian were above 100 µM, above 100 µM and 46.4 µM, respectively.
Regarding `CN(C)N=Nc1ccc(S(N)(=O)=O)cc1`, the TGI in the test on CCRF-CEM leukemia, with MALME-3M melanoma, in the test with LOX IMVI melanoma, in the test with HT29 colon, with SF-295 CNS and in the test with SK-OV-3 ovarian was above 100 µM throughout. Further, the TGI in the test on A549 NSCLC, in the test on SNB-19 CNS and with IGROV1 ovarian was above 100 µM throughout.
Take `COc1ccc(/C=C/c2ccnc3ccccc23)cc1OC`: the TGI came to 31 µM with CCRF-CEM leukemia; 30.7 µM in the test with MALME-3M melanoma; 21.6 µM in the test on LOX IMVI melanoma; 27.4 µM with HT29 colon; 46.8 µM in the test with SF-295 CNS; 92.8 µM in the test with SK-OV-3 ovarian. Also, the TGI with A549 NSCLC is 31.2 µM; with SNB-19 CNS it was 31.2 µM; in the test on IGROV1 ovarian, 28.9 µM.
As for `O=C(Oc1c(Cl)cc(Cl)cc1Cl)c1ccccc1Nc1ccnc(C(F)(F)F)c1`, the GI50 with MDA-MB-231 breast is 3.25 µM; with LOX IMVI melanoma it was 1.99 µM; with HT29 colon, 4.59 µM; with SF-295 CNS it was 4.16 µM; in the test with A549 NSCLC it was 3.9 µM; in the test on SNB-19 CNS, 7.07 µM. Moreover, the GI50 in the test with IGROV1 ovarian was above 100 µM. In addition, the TGI in the test on MDA-MB-231 breast was 18.9 µM; in the test with LOX IMVI melanoma it was 5.13 µM; in the test with HT29 colon, above 100 µM; in the test on SF-295 CNS it was above 100 µM; with A549 NSCLC, 71.5 µM; in the test on SNB-19 CNS it was above 100 µM. The same compound showed a TGI with IGROV1 ovarian above 100 µM.
